In brackets after ≈: the same amount, converted by molar mass. Like-named read-outs stand apart in the source and are kept apart here.
Legend:
Format in all cases: cell-based
[1] = system: Proteus mirabilis (IFO 3849); assay: MIC, agar dilution, Proteus mirabilis; settings: read-out: Minimum Inhibitory Concentration (MIC)
Protocol: (§1) The compounds of this invention were tested for antibacterial activity according to the following procedure. Nutrient broth and nutrient agar were prepared according to the conventional procedure. […] was used as a vehicle. The stock solution was prepared at 100 μg/ml of the test material in the vehicle. Two-fold dilutions were made with the vehicle and then the diluted stock solution was added to a petri dish and solidified by chilling. Test organisms were grown in the nutrient broth for 20 hours at 37° C. The hardened surface was inoculated with a loopful of the test organism solution containing 1×10^6 cells per milliliter and incubated for 20 hours at 37° C. At the end of this period, growth of the organism was observed. […] The following Table 1 summarizes the activity of representative compounds as active antibacterial agents, and compares them with the prior art compounds and the reference drug Sulbenicillin.

E. coli (NIHJ) = assay: MIC, agar dilution, E. coli; settings: Escherichia coli, read-out: Minimum Inhibitory Concentration (MIC)
Protocol: as §1

Staph. aureus (FDA 209P) = assay: MIC, agar dilution, Staph. aureus; settings: Staphylococcus aureus, FDA209P, read-out: Minimum Inhibitory Concentration (MIC)
Protocol: as §1

[2] = system: Proteus vulgaris (IFO 3045); assay: MIC, agar dilution, Proteus vulgaris; settings: read-out: Minimum Inhibitory Concentration (MIC)
Protocol: as §1

[3] = system: Proteus morgani (IFO 3848); assay: MIC, agar dilution, Proteus morgani; settings: Morganella morganii, read-out: Minimum Inhibitory Concentration (MIC)
Protocol: as §1

[4] = system: Pseudomonas aeruginosa (ATCC 15692); assay: MIC, agar dilution, Pseudomonas aeruginosa ATCC 15692; settings: read-out: Minimum Inhibitory Concentration (MIC)
Protocol: as §1

[5] = system: Klebsiella pneumoniae (ATCC 25955); assay: MIC, agar dilution, Klebsiella pneumoniae; settings: ATCC25955; Klebsiella pneumoniae ATCC 25955; nutrient agar, 20 hours at 37° C.; read-out: Minimum Inhibitory Concentration (MIC)
Protocol: as §1

[6] = system: Pseudomonas aeruginosa M-11; assay: MIC, agar dilution, Pseudomonas aeruginosa M-11; settings: 20 h, read-out: Minimum Inhibitory Concentration (MIC)
Protocol: as §1
^*1 streptomycin resistant strain derived from Pseudomonas aeruginosa

[7] = system: Pseudomonas aeruginosa M-12; assay: MIC, agar dilution, Pseudomonas aeruginosa M-12; settings: ATCC15692, 20 h, read-out: Minimum Inhibitory Concentration (MIC)
Protocol: as §1
^*2 chloramphenicol resistant strain derived from Pseudomonas

[8] = system: Pseudomonas aeruginosa M-16; assay: MIC, agar dilution, Pseudomonas aeruginosa M-16; settings: M16, 20 h, read-out: Minimum Inhibitory Concentration (MIC)
Protocol: as §1
^*3 streptomycin, chloramphenicol and mercury resistant strain derive

[9] = system: Pseudomonas aeruginosa (ATCC 15691); assay: MIC, agar dilution, Pseudomonas aeruginosa ATCC 15691; settings: ATCC15691, P. aeruginosa ATCC 15691, nutrient agar, 20 hours at 37° C., read-out: Minimum Inhibitory Concentration (MIC)
Protocol: as §1

[10] = Proteus mirabilis, IFO3849, 20 h
[11] = Proteus vulgaris, IFO3045, 20 h

SMILES: CC1(C)S[C@@H]2[C@H](NC(=O)[C@H](NC(=O)[C@H]3CCCN3)c3ccc(O)cc3)C(=O)N2[C@H]1C(=O)O [Compound 3, 6-[D-2-(D-prolylamino)-2-(4-hydroxyphenyl)acetamido]penicillanic acid monohydrate]
- MIC [1, 10]: 2.2 µg/mL
- MIC (E. coli (NIHJ); 20 h): 6.2 µg/mL
- MIC (Staph. aureus (FDA 209P); 20 h): 0.9 µg/mL
- MIC [2, 11]: 6.2 µg/mL
- MIC ([3]; IFO3848, 20 h): 3.1 µg/mL
- MIC ([4]; ATCC15692, 20 h): 6.2 µg/mL

SMILES: CC1(C)S[C@@H]2[C@H](NC(=O)[C@H](NC(=O)[C@@H]3CCCN3)c3ccc(O)cc3)C(=O)N2[C@H]1C(=O)O [Compound 4]
- MIC [1, 10]: 9 µg/mL (≈ 19.5 µM)
- MIC (E. coli (NIHJ); 20 h): 25 µg/mL (≈ 54.1 µM)
- MIC (Staph. aureus (FDA 209P); 20 h): 1.25 µg/mL (≈ 2.7 µM)
- MIC [2, 11]: 12.5 µg/mL (≈ 27 µM)
- MIC ([3]; IFO3848, 20 h): 9 µg/mL (≈ 19.5 µM)
- MIC ([4]; ATCC15692, P. aeruginosa ATCC 15692, nutrient agar, 20 hours at 37° C.): 50 µg/mL (≈ 108 µM)

SMILES: CC1(C)S[C@@H]2[C@H](NC(=O)C(c3ccccc3)S(=O)(=O)O)C(=O)N2[C@H]1C(=O)O (stereo partly shown) [sulpenicillin, reference compound]
- MIC ([1]; IFO3849, Proteus mirabilis IFO 3849, nutrient agar, 20 hours at 37° C.): < 3.1 µg/mL
- MIC (E. coli (NIHJ); E. coli NIHJ, nutrient agar, 20 hours at 37° C.): 1.25 µg/mL (≈ 3.02 µM)
- MIC [5]: > 100 µg/mL
- MIC [6]: 25 µg/mL (≈ 60.3 µM)
- MIC (Staph. aureus (FDA 209P); Staph. aureus FDA 209P, nutrient agar, 20 hours at 37° C.): 3.25 µg/mL (≈ 7.84 µM)
- MIC ([2]; IFO3045, Proteus vulgaris IFO 3045, nutrient agar, 20 hours at 37° C.): < 3.1 µg/mL
- MIC [7]: 25 µg/mL (≈ 60.3 µM)
- MIC [8]: 25 µg/mL (≈ 60.3 µM)
- MIC ([3]; IFO3848, Proteus morgani IFO 3848, nutrient agar, 20 hours at 37° C.): < 3.1 µg/mL
- MIC [9]: 50 µg/mL (≈ 121 µM)

— patent publication US4220587A, “Amino acid derivatives of 6-(2-amino-2-arylacetamido)penicillanic acids” (Mitsubishi Chemical Industries, Limited, priority 1975, dated 1980)
